Results taken from patent US9744156B2, “Methods and compositions for enhanced transungual delivery of AR-12” (Arno Therapeutics, Inc., priority 2015, dated 2017).
Like-named read-outs stand apart in the source and are kept apart here.

Key:
[1] = In vitro permeation across cadaver nail plate in modified Franz diffusion cell; type: in vitro ADME, human
Description: The permeation study was performed in Franz diffusion cells fitted with nail adapter. The finger nails (from all fingers except the little finger) of human cadavers obtained from ScienceCare were used for the transport studies. The nail plates were cleaned with water, and nail plates of 400-450 micron thickness were selected and visually inspected for presence of any cracks or pores. After mounting on the diffusion cell, the donor as well as the receiver compartments were filled with phosphate buffered saline […] and allowed to equilibrate for 3 hours for complete hydration of the nail plate. The electrical resistivity across the nail plate was measured prior to removal of the buffer to check the intactness of the nail plate after hydration.
The permeation testing was performed using modified Franz diffusion cell. The cell consisted of two compartments: a (1) a donor compartment for placing the drug solution/formulation and (2) a receiver compartment containing the buffer in which the drug diffuses. A nail holder is placed between the two compartments. The nail holder is curved to accommodate the contour of nail plate and secures the nail between the upper and lower part of the holder.
The donor compartment was filled with 500 microliters of drug solution (50 mg/ml) prepared in ethyl alcohol. For the control sample, no enhancer was incorporated. In the test cells, the enhancer was incorporated (5% PEG or 5% dexpanthenol or both). The donor compartment was covered with parafilm to minimize the loss of solvent. The drug solution was removed every 2 hours, the donor compartment was washed two times with 500 microliters of alcohol, and fresh drug solution (50 mg/ml) was placed in the donor compartment. […] The receiver compartment fluid was sampled at predetermined time points (e.g., 0, 12, 24, 36, 48, 60, 72, 84, 96, 108, 120, 132, 144, 156, 192, 204, […]) and the amount of drug permeated across the nail plate was quantitated by high pressure liquid chromatography.

[2] = 5% enhancer in 5% w/v AR-12 solution in ethanol, 24 h; FIG. 1

NCC(=O)Nc1ccc(-n2nc(C(F)(F)F)cc2-c2ccc3c(ccc4ccccc43)c2)cc1 [AR-12, 2-amino-N-(4-(5-(phenanthren-2-yl)-3-(trifluoromethyl)-1H-pyrazol-1-yl)phenyl)acetamide]
amount of drug permeated in a one week period across the nail plate ([1]; control, no enhancer, drug solution 50 mg/ml in ethyl alcohol, one week): 658 ± 306 ng

CC(C)(CO)[C@@H](O)C(=O)NCCCO [dexpanthenol]
suitability as enhancer for trans-ungual delivery of AR-12 (AR-12 accumulated in nail plate) [2]: preferred enhancers
enhancement of permeation flux of AR-12 across the nail plate ([1]; 5% enhancer in AR-12 solution (50 mg/ml in ethyl alcohol) versus control without enhancer, one week, FIG. 2): four fold

polyethylene glycol 400 [PEG-400]
enhancement of permeation flux of AR-12 across the nail plate [1]: about six fold
